What all share (assay type): cell-based
Test [1] deals with BPDCN cell line CAL-1 (MYC+BPDCN). Put plainly: Cell survival rate (Cell Titer-Glo cell growth assay), CAL-1. The conditions noted are these: for survival rate of the CAL-1 cell line: CAL-1, 48 hours after addition of the BET bromodomain-selective inhibitor. From the text: (§1) The cell lines used were 4 lines: BPDCN cell lines CAL-1 (MYC^+BPDCN; Non Patent Literature 11; obtained from Nagasaki University) and PMDC05 (MYC-BPDCN; Non Patent Literature 12; obtained from Niigata University), a positive control plasma cell neoplasm KMS12PE (obtained from JCRB Cell Bank) having the increased expression of MYC, and a negative control leukemia cell line K562 (obtained from JCRB Cell Bank) in which no MYC gene rearrangement was seen.
(§2) The CAL-1, PMDC05, or KMN12PE cells at 4000 cells/well or K562 at 1000 cells/well were inoculated to 96-well cell culture plates. […] The cell survival rates were measured using a cell growth assay kit using CTG reagent (Cell Titer-Glo, manufactured by Promega Corp.).
(§3) Aurora kinase inhibitors, albeit not agents directly suppressing MYC expression, were analyzed for their effects in the present invention. […] Each inhibitor was added from 1 nm to 10000 nM to the medium of the cells of each line. 48 hours later, the survival rates of these cells were analyzed (FIG. 10).
(§4) Each inhibitor was added in the concentration of 1 nM to 10000 nM to the 4 cell lines described above. The survival rates of these cells were analyzed 48 hours later (FIG. 11).

Test [2] deals with BPDCN cell line PMDC05 (MYC-BPDCN). Put plainly: Cell survival rate (Cell Titer-Glo cell growth assay), PMDC05. The conditions noted are these: PMDC05, 48 hours, FIG. 6.
Text: as §1, §2, §3, §4

The test system of test [3] is negative control leukemia cell line K562. Briefly: Cell survival rate (Cell Titer-Glo cell growth assay), K562. The settings on record: 48 hours, JQ1 at 1000 nM or more, FIG. 6.
Text: as §1, §2
On the technique in general: ATP-based viability assays read luminescence as a measure of living cells.

Test [4] has as its system MYC expression in CAL-1 cells. Briefly: MYC expression over time by immunostaining, CAL-1. The settings on record: FIG. 7. Here is the method: The ratios of MYC-positive cells at the time of JQ1 addition (0 hours), 6 hours later, 24 hours later, and 48 hours later were approximately 95%, 60%, 15%, and 0%, respectively. Good correlation was observed between decrease in cell survival rate and decrease in MYC expression level.

In test [5] the test system is MYC expression and PARP cleavage in CAL-1 cells. Briefly: Western blot for MYC expression and PARP cleavage after JQ1, CAL-1. The conditions noted are these: CAL-1, 400 nM JQ1 for 24 hours, compared with untreated cells, FIG. 9. The text has this:
(§5) The primary antibody used was anti-cMyc rabbit monoclonal antibody (manufactured by Abcam plc) and an anti-GAPDH mouse monoclonal antibody (manufactured by Merck Millipore) as control. The secondary antibody used was a HRP-labeled anti-rabbit IgG antibody (donkey, manufactured by Amersham Biosciences Corp.). SuperSignal West Femto Maximum Sensitivity Substrate (manufactured by Pierce/Thermo Fisher Scientific Inc.) was used for detection.
(§6) As mentioned above, it was shown that the cell growth was suppressed by the addition of the BET bromodomain-selective inhibitors to a medium. Next, analysis was conducted on a mechanism underlying the suppression of the cell growth. JQ1 was added to CAL-1, PMDC05, KMS12PE, and K562 cells. Twenty-four hours later, the cells were collected and analyzed by Western blot for MYC expression and PARP cleavage serving as an index for cell death by apoptosis. An anti-PARP antibody was obtained from Cell Signaling Technology, Inc.
In general terms: In western blotting, separated proteins are transferred to a membrane and probed.

Test [6] deals with MYC expression and PARP cleavage in KMS12PE cells. Briefly: Western blot for MYC expression and PARP cleavage after JQ1, KMS12PE. The settings on record: 400 nM JQ1 for 24 hours, compared with untreated cells, FIG. 9.
Text: as §5, §6

The subject of test [7] is PARP cleavage in PMDC05 cells. Put plainly: Western blot for PARP cleavage after JQ1, PMDC05. The conditions noted are these: PMDC05, JQ1 for 24 hours, FIG. 9.
Text: as §5, §6

Test [8] deals with PARP cleavage in K562 cells. Put plainly: Western blot for PARP cleavage after JQ1, K562. The conditions noted are these: K562, JQ1 for 24 hours, FIG. 9.
Text: as §5, §6

The mark [9] stands for this setting: inhibitor added at a high concentration.

As to `Cc1sc2c(c1C)C(c1ccc(Cl)cc1)=N[C@@H](CC(N)=O)c1nnc(C)n1-2` [CPI203], the “survival rate of the CAL-1 cell line” value in test [1] (FIG. 6) is “sharply decreased”. Moreover, in test [2] (setting [9]), the “survival rate of PMDC05” value is reported as “high survival rate”.

With `COc1cc2c(cc1-c1c(C)noc1C)ncc1[nH]c(=O)n([C@H](C)c3ccccn3)c12` [I-BET151], the “survival rate of the CAL-1 cell line” value in test [1] (FIG. 6) is given as “sharply decreased”. Further, in test [2] (setting [9]), the “survival rate of PMDC05” value was “high survival rate”.

As to `Cc1sc2c(c1C)C(c1ccc(Cl)cc1)=N[C@@H](CC(=O)OC(C)(C)C)c1nnc(C)n1-2` [JQ1], the “concentration above which the survival rate of CAL-1 was rapidly decreased” value in test [1] (CAL-1, 48 hours after addition, 6.25 nM to 6400 nM, FIG. 6) is “exceeded 150 nM”. Further, the “survival rate of PMDC05” value in test [2] (JQ1 added at a high concentration of 1000 nM or more) is reported as “high survival rate”. In addition, in test [3], the “survival rate of K562” value is reported as “high survival rate”. In addition, the “ratio of MYC-positive cells” value is roughly 60% in test [4] (CAL-1, 400 nM JQ1, 6 hours later); roughly 15% in test [4] (CAL-1, 400 nM JQ1, 24 hours later); roughly 0% in test [4] (CAL-1, 400 nM JQ1, 48 hours later); “approximately 95%” in test [4] (CAL-1, 400 nM JQ1, at the time of JQ1 addition (0 hours)). Also, the “MYC expression (Western blot)” value in test [5] and in test [6] was “markedly decreased” each time. Besides, the “expression of cleaved-PARP (index for cell death by apoptosis)” value in test [5] and in test [6] was “increased” each time. In addition, the “increased PARP cleavage” value in test [7] and in test [8] was “not observed” in each case.

In the case of `Cc1sc2c(c1C)C(c1ccc(Cl)cc1)=N[C@@H](CC(=O)Nc1ccc(O)cc1)c1nnc(C)n1-2` [OTX015], the “survival rate of the CAL-1 cell line” value in test [1] (FIG. 6) was “sharply decreased”. Moreover, in test [2] (setting [9]), the “survival rate of PMDC05” value is “high survival rate”.

For `COc1ccccc1S(=O)(=O)Nc1ccc2c(c1)CN(C)C(=O)N2` [PFI-1], in test [1] (FIG. 6), the “survival rate of the CAL-1 cell line” value is “sharply decreased”. The “survival rate of PMDC05” value in test [2] (setting [9]) is “high survival rate”.

Turning to `COc1cc(Nc2ncc3c(n2)-c2ccc(Cl)cc2C(c2c(F)cccc2OC)=NC3)ccc1C(=O)O` [alisertib], in test [1] (1 nM to 10000 nM, 48 hours, FIG. 10), the “growth suppressive or inhibitory effect on CAL-1 compared with PMDC05 cells” value was “higher growth suppressive or inhibitory effect”. Moreover, the “growth suppression of BPDCN cell lines that exhibited MYC expression” value in test [1] (summary statement in the description) was “effective”.

(Values after patent US20230323475A1, “TEST METHOD, OF DIVIDING BLASTIC PLASMACYTOID DENDRITIC CELL NEOPLASM (BPDCN) INTO SUBTYPES” (JAPANESE FOUNDATION FOR CANCER RESEARCH, priority 2016, published 2023).)
